# According to patent publication US20230019236A1, “PROTEIN TYROSINE PHOSPHATASE INHIBITORS AND METHODS OF USE THEREOF” (Calico Life Sciences LLC, priority 2019, published 2023):
# Molecular target: T1, His tagged full-length PTP1B protein (Homo sapiens, UniProt P18031)
# T1 construct: made in house
# T1 sequence (P18031 with tags, fused parts or gaps): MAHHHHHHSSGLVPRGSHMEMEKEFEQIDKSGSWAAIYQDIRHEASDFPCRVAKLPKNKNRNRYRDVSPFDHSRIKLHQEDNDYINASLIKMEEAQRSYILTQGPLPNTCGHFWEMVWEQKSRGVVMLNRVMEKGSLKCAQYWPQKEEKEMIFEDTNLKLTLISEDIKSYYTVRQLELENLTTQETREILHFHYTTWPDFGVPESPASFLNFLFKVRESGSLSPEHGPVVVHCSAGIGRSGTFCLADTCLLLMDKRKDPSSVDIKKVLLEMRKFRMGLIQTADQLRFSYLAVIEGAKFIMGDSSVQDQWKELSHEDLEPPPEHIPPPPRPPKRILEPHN
# Experiment: Mobility Shift Assay (MSA) used to determine potency of PTP1B inhibitors
# Assay type: biochemical
# Conditions: Table 2
# Protocol: The enzymatic assay used to determine activity is a mobility shift assay using a LabChip EZ Reader by Caliper Life Sciences. The enzymatic reaction was carried out in assay buffer (50 mM HEPES pH 7.5, 1 mM EGTA, 10 mM EDTA, 0.01% Tween® 20, and 2 mM DTT). […] The enzyme (at 0.5 nM) was incubated with compound for 10 minutes at room temperature. […] The % inhibition was then used to calculate the IC50 values.
row,IC50,Structure (SMILES)
1,1 to 10 nM,"C[C@@H](O)CCCc1ccc2cc(O)c(N3CC(=O)NS3(=O)=O)c(F)c2c1 [Compound 151, 5-{1-fluoro-3-hydroxy-7-[(4R)-4-hydroxypentyl]naphthalen-2-yl}-1λ^6,2,5-thiadiazolidine-1,1,3-trione]"
2,1 to 10 nM,"C[C@H](O)CCCc1ccc2cc(O)c(N3CC(=O)NS3(=O)=O)c(F)c2c1 [Compound 153, 5-{1-fluoro-3-hydroxy-7-[(4S)-4-hydroxypentyl]naphthalen-2-yl}-1λ^6,2,5-thiadiazolidine-1,1,3-trione]"
3,1 to 10 nM,"CCC(=O)CCOc1ccc2cc(O)c(N3CC(=O)NS3(=O)=O)c(F)c2c1 [Compound 155, 5-{1-fluoro-3-hydroxy-7-[(3-oxopentyl)oxy]naphthalen-2-yl}-1λ^6,2,5-thiadiazolidine-1,1,3-trione]"
4,1 to 10 nM,"N#CC1(CCOc2ccc3cc(O)c(N4CC(=O)NS4(=O)=O)c(F)c3c2)CC1 [Compound 159, 1-(2-{[8-fluoro-6-hydroxy-7-(1,1,4-trioxo-1λ^6,2,5-thiadiazolidin-2-yl)naphthalen-2-yl]oxy}ethyl)cyclopropane-1-carbonitrile]"
5,1 to 10 nM,"COCC1(CCOc2ccc3cc(O)c(N4CC(=O)NS4(=O)=O)c(F)c3c2)CC1 [Compound 160, 5-(1-fluoro-3-hydroxy-7-{2-[1-(methoxymethyl)cyclopropyl]ethoxy}naphthalen-2-yl)-1λ^6,2,5-thiadiazolidine-1,1,3-trione]"
6,10 to 100 nM,"O=C1CN(c2c(O)cc3ccc(CNCC4CC4)cc3c2F)S(=O)(=O)N1 [Compound 161, 5-(7-{[(cyclopropylmethyl)amino]methyl}-1-fluoro-3-hydroxynaphthalen-2-yl)-1λ^6,2,5-thiadiazolidine-1,1,3-trione]"
7,> 100 nM,"O=C1CN(c2c(O)cc3ccc(NCCc4ccccc4)cc3c2F)S(=O)(=O)N1 [Compound 164, 5-{1-fluoro-3-hydroxy-7-[(2-phenylethyl)amino]naphthalen-2-yl}-1λ^6,2,5-thiadiazolidine-1,1,3-trione]"
8,> 100 nM,"O=C1CN(c2c(O)cc3ccc(NCCCC(F)(F)F)cc3c2F)S(=O)(=O)N1 [Compound 166, 5-{1-fluoro-3-hydroxy-7-[(4,4,4-trifluorobutyl)amino]naphthalen-2-yl}-1λ^6,2,5-thiadiazolidine-1,1,3-trione]"
9,> 100 nM,"O=C1CN(c2c(O)cc3ccc(C(F)F)cc3c2F)S(=O)(=O)N1 [Compound 167, 5-[7-(difluoromethyl)-1-fluoro-3-hydroxynaphthalen-2-yl]-1λ^6,2,5-thiadiazolidine-1,1,3-trione]"
10,10 to 100 nM,"O=C1CN(c2c(O)cc3ccc(NCCC(F)(F)F)cc3c2F)S(=O)(=O)N1 [Compound 169, 5-{1-fluoro-3-hydroxy-7-[(3,3,3-trifluoropropyl)amino]naphthalen-2-yl}-1λ^6,2,5-thiadiazolidine-1,1,3-trione]"
11,> 100 nM,"CC(C)OCCNc1ccc2cc(O)c(N3CC(=O)NS3(=O)=O)c(F)c2c1 [Compound 172, 5-[1-fluoro-3-hydroxy-7-({2-[(propan-2-yl)oxy]ethyl}amino)naphthalen-2-yl]-1λ^6,2,5-thiadiazolidine-1,1,3-trione]"
12,> 100 nM,"N#CCCCNc1ccc2cc(O)c(N3CC(=O)NS3(=O)=O)c(F)c2c1 [Compound 174, 4-{[8-fluoro-6-hydroxy-7-(1,1,4-trioxo-1λ^6,2,5-thiadiazolidin-2-yl)naphthalen-2-yl]amino}butanenitrile]"
13,10 to 100 nM,"O=C1CN(c2c(O)cc3ccc(CCO)cc3c2F)S(=O)(=O)N1 [Compound 175, 5-[1-fluoro-3-hydroxy-7-(2-hydroxyethyl)naphthalen-2-yl]-1λ^6,2,5-thiadiazolidine-1,1,3-trione]"
14,> 100 nM,"O=C1CN(c2c(O)cc3ccc(NCCN4CCC4)cc3c2F)S(=O)(=O)N1 [Compound 177, 5-(7-{[2-(azetidin-1-yl)ethyl]amino}-1-fluoro-3-hydroxynaphthalen-2-yl)-1λ^6,2,5-thiadiazolidine-1,1,3-trione]"
15,10 to 100 nM,"O=C1CN(c2c(O)cc3ccc(OC4CN(S(=O)(=O)C5CC5)C4)cc3c2F)S(=O)(=O)N1 [Compound 178, 5-(7-{[1-(cyclopropanesulfonyl)azetidin-3-yl]oxy}-1-fluoro-3-hydroxynaphthalen-2-yl)-1λ^6,2,5-thiadiazolidine-1,1,3-trione]"
16,> 100 nM,"COCCNc1ccc2cc(O)c(N3CC(=O)NS3(=O)=O)c(F)c2c1 [Compound 179, 5-{1-fluoro-3-hydroxy-7-[(2-methoxyethyl)amino]naphthalen-2-yl}-1λ^6,2,5-thiadiazolidine-1,1,3-trione]"
17,10 to 100 nM,"O=C1CN(c2c(O)cc3ccc(OCCC(F)(F)F)cc3c2F)S(=O)(=O)N1 [Compound 180, 5-[1-fluoro-3-hydroxy-7-(3,3,3-trifluoropropoxy)naphthalen-2-yl]-1λ^6,2,5-thiadiazolidine-1,1,3-trione]"
18,1 to 10 nM,"N#CC1(CNc2ccc3cc(O)c(N4CC(=O)NS4(=O)=O)c(F)c3c2)CC1 [Compound 181, 1-({[8-fluoro-6-hydroxy-7-(1,1,4-trioxo-1λ^6,2,5-thiadiazolidin-2-yl)naphthalen-2-yl]amino}methyl)cyclopropane-1-carbonitrile]"
19,1 to 10 nM,"O=C1CN(c2c(O)cc3ccc(OCCCn4cccn4)cc3c2F)S(=O)(=O)N1 [Compound 183, 5-{1-fluoro-3-hydroxy-7-[3-(1H-pyrazol-1-yl)propoxy]naphthalen-2-yl}-1λ^6,2,5-thiadiazolidine-1,1,3-trione]"
20,1 to 10 nM,"Nc1ccc(CS(=O)(=O)N2CC=C(c3ccc4cc(O)c(N5CC(=O)NS5(=O)=O)c(F)c4c3)C2)cc1 [Compound 184, 5-(7-{1-[(4-aminophenyl)methanesulfonyl]-2,5-dihydro-1H-pyrrol-3-yl}-1-fluoro-3-hydroxynaphthalen-2-yl)-1λ^6,2,5-thiadiazolidine-1,1,3-trione]"
21,10 to 100 nM,"O=C1CN(c2c(O)cc3ccc(CO)cc3c2F)S(=O)(=O)N1 [Compound 185, 5-[1-fluoro-3-hydroxy-7-(hydroxymethyl)naphthalen-2-yl]-1λ^6,2,5-thiadiazolidine-1,1,3-trione]"
22,1 to 10 nM,"O=C1CN(c2c(O)cc3ccc(OCCn4cccn4)cc3c2F)S(=O)(=O)N1 [Compound 188, 5-{1-fluoro-3-hydroxy-7-[2-(1H-pyrazol-1-yl)ethoxy]naphthalen-2-yl}-1λ^6,2,5-thiadiazolidine-1,1,3-trione]"
23,10 to 100 nM,"CC1(CCOc2ccc3cc(O)c(N4CC(=O)NS4(=O)=O)c(F)c3c2)CC1 [Compound 193, 5-{1-fluoro-3-hydroxy-7-[2-(1-methylcyclopropyl)ethoxy]naphthalen-2-yl}-1λ^6,2,5-thiadiazolidine-1,1,3-trione]"
24,1 to 10 nM,"Nc1cccc(CS(=O)(=O)N2CC=C(c3ccc4cc(O)c(N5CC(=O)NS5(=O)=O)c(F)c4c3)C2)c1 [Compound 194, 5-(7-{1-[(3-aminophenyl)methanesulfonyl]-2,5-dihydro-1H-pyrrol-3-yl}-1-fluoro-3-hydroxynaphthalen-2-yl)-1λ^6,2,5-thiadiazolidine-1,1,3-trione]"
25,1 to 10 nM,"Nc1ccccc1CS(=O)(=O)N1CC=C(c2ccc3cc(O)c(N4CC(=O)NS4(=O)=O)c(F)c3c2)C1 [Compound 195, 5-(7-{1-[(2-aminophenyl)methanesulfonyl]-2,5-dihydro-1H-pyrrol-3-yl}-1-fluoro-3-hydroxynaphthalen-2-yl)-1λ^6,2,5-thiadiazolidine-1,1,3-trione]"
26,> 100 nM,"O=C1CN(c2c(O)cc3ccc(OCC(F)(F)F)cc3c2F)S(=O)(=O)N1 [Compound 197, 5-[1-fluoro-3-hydroxy-7-(2,2,2-trifluoroethoxy)naphthalen-2-yl]-1λ^6,2,5-thiadiazolidine-1,1,3-trione]"

row,Structure (SMILES),IC50
1,"C[C@@H](O)CCOc1ccc2cc(O)c(N3CC(=O)NS3(=O)=O)c(F)c2c1 [Compound 149, 5-{1-fluoro-3-hydroxy-7-[(3R)-3-hydroxybutoxy]naphthalen-2-yl}-1λ^6,2,5-thiadiazolidine-1,1,3-trione]",1 to 10 nM
2,"O=C1CN(c2c(O)cc3ccc(OCCCC(F)(F)F)cc3c2F)S(=O)(=O)N1 [Compound 158, 5-[1-fluoro-3-hydroxy-7-(4,4,4-trifluorobutoxy)naphthalen-2-yl]-1λ^6,2,5-thiadiazolidine-1,1,3-trione]",1 to 10 nM
3,"CNCC(C)(C)CCOc1ccc2cc(O)c(N3CC(=O)NS3(=O)=O)c(F)c2c1 [Compound 163, 5-{7-[3,3-dimethyl-4-(methylamino)butoxy]-1-fluoro-3-hydroxynaphthalen-2-yl}-1λ^6,2,5-thiadiazolidine-1,1,3-trione]",> 100 nM
4,"CC(C)(N)CCOc1ccc2cc(O)c(N3CC(=O)NS3(=O)=O)c(F)c2c1 [Compound 165, 5-[7-(3-amino-3-methylbutoxy)-1-fluoro-3-hydroxynaphthalen-2-yl]-1λ^6,2,5-thiadiazolidine-1,1,3-trione]",1 to 10 nM
5,"COC(C)(C)CCOc1ccc2cc(O)c(N3CC(=O)NS3(=O)=O)c(F)c2c1 [Compound 170, 5-[1-fluoro-3-hydroxy-7-(3-methoxy-3-methylbutoxy)naphthalen-2-yl]-1λ^6,2,5-thiadiazolidine-1,1,3-trione]",1 to 10 nM
6,"CC(C)(CN)CCOc1ccc2cc(O)c(N3CC(=O)NS3(=O)=O)c(F)c2c1 [Compound 176, 5-[7-(4-amino-3,3-dimethylbutoxy)-1-fluoro-3-hydroxynaphthalen-2-yl]-1λ^6,2,5-thiadiazolidine-1,1,3-trione]",1 to 10 nM
